# Experimental data published in ChEMBL document CHEMBL1201862, “PubChem BioAssay data set” (2004).
# Active and inactive are the calls of the source.
# How the values were obtained:
# Mucolipin-3 = biological target: T1, Mucolipin-3 (Homo sapiens, UniProt Q8TDD5); test: Dose response cell-based high-throughput screening assay for agonists of the transient receptor potential channel ML3 (TRPML3). [Related pubchem assays: 1526, 1424, 1448 ]; format: functional
# T1 sequence (Q8TDD5 whole entry): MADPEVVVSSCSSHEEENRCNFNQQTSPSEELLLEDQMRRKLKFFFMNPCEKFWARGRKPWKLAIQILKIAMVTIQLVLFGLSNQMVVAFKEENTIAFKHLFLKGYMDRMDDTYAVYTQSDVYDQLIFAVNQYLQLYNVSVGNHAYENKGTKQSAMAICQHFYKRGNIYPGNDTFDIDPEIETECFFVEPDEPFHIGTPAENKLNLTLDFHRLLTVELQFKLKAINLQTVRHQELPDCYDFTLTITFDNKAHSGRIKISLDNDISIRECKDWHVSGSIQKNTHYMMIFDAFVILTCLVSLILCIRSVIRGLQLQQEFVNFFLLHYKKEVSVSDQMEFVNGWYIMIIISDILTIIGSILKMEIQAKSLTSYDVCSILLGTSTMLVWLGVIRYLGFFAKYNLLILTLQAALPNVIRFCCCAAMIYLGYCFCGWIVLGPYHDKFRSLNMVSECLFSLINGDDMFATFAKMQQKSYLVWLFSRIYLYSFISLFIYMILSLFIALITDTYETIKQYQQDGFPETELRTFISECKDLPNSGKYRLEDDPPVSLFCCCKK
# Ion channel NompC = Ion channel NompC (Danio rerio, UniProt Q7T1G6); test: Fluorescence counterscreen assay for TRPML3 agonists: dose response cell-based high-throughput screening assay to identify agonists of the transient receptor potential channel N1 (TRPN1). [Related pubchem assays: 1526, 1424, 1448 ]; format: functional
# [1] = biological target: Glyceraldehyde-3-phosphate dehydrogenase (Homo sapiens, UniProt P04406)
# Bcl-2-related protein A1 [2] = biological target: T2, Bcl-2-related protein A1 (Mus musculus, UniProt Q07440); test: small-molecule antagonists of Bfl-1/BH3 interaction – biochemical, TR-FRET, mouse Bfl-1, confirmation (AID 621);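 note: TR-FRET binding of GST-Bfl-1 to FITC-labelled Bid peptide via terbium antibody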
# T2 sequence (Q07440 whole entry): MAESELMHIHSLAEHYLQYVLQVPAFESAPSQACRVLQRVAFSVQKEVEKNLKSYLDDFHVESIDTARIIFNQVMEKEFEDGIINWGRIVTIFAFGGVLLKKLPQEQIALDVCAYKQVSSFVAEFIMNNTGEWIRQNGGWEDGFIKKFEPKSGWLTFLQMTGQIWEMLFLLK
# Bcl-2-related protein A1 [3] = biological target: T2, Bcl-2-related protein A1; test: Bfl-1 binding inhibitors, SAR follow-up, biochemical, fluorescence polarization (AID 1070)
# [4] = biological target: G-protein coupled receptor 55 (Homo sapiens, UniProt Q9Y2T6); test: inhibition of LPI-stimulated GPR55 beta-arrestin translocation – imaging, U2OS, beta-arrestin-GFP, LPI agonist, primary screen (AID 2013); format: functional;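 note: antagonist potency measured as reduced agonist-driven arrestin aggregation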
# [5] = M. tuberculosis H37Rv growth inhibitors, H37Rv strain (AID 1626); format: functional
# [6] = Luminescence Cell-Based Dose Response to Identify Activators of 5'UTR Stem-Loop Driven Prion Protein mRNA Translation in H4-C Neuroglioblastoma Cells. [Related pubchem assays: 1829 (Project Summary), 1814 (Primary HTS)]; format: functional
# [7] = Luminescence Cell-Based Dose Response HTS to Identify Activators of Luciferase Translation or Activity in H4 […] Cells. [Related pubchem assays: 1829 (Project Summary), 1814 (Primary HTS)]; format: functional
# [8] = Luminescence Cell-Based Dose Response to Identify Activators of Luciferase Translation or Activity in H4-C Neuroglioblastoma Cells. [Related pubchem assays: 1829 (Project Summary), 1814 (Primary HTS)]; format: functional
# [9] = Luminescence Cell-Based Dose Confirmation to Identify Activators of 5'UTR Stem-Loop Driven Alpha-Synuclein mRNA Translation in H4 Neuroglioblastoma Cells. [Related pubchem assays: 1829 (Project Summary), 1814 (Primary HTS)]; format: functional
# Cytochrome P450 2C9 = Cytochrome P450 2C9 (Homo sapiens, UniProt P11712)
# [10] = biological target: T3, Neuropeptide Y receptor type 1 (Homo sapiens, UniProt P25929); format: functional;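 note: HEK293 cells with a CNG channel challenged with NPY then isoproterenol; potency as antagonist that reverses NPY suppression of cAMP signal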
# T3 sequence (P25929 whole entry): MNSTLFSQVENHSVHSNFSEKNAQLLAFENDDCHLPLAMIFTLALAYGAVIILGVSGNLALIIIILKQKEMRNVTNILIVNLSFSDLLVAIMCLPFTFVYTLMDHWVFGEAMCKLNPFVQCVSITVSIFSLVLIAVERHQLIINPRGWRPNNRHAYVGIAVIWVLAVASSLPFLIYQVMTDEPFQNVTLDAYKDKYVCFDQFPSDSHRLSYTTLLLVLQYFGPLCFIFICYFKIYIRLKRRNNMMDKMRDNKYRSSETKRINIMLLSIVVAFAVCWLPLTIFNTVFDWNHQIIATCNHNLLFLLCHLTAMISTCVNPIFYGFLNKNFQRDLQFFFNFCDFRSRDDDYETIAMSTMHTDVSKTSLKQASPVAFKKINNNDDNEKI
# [11] = biological target: T4, Neuropeptide Y receptor type 2 (Homo sapiens, UniProt P49146); format: functional, cell-based;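 note: HEK293 cells expressing the receptor and a CNG channel; stimulus was NPY near EC95 followed by isoproterenol to raise cAMP; antagonist potency measured as restoring cAMP signal that NPY suppresses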
# T4 sequence (P49146 whole entry): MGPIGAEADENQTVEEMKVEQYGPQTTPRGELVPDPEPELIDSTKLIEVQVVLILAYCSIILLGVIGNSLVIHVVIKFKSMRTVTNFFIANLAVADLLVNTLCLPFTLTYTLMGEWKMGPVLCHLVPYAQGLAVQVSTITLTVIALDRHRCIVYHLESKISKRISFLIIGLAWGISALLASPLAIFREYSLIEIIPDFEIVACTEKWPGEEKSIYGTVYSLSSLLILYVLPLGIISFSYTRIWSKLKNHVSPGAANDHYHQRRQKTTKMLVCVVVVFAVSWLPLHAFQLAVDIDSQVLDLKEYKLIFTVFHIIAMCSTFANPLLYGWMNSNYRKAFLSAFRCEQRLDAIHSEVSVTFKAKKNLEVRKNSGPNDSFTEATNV
# Large T antigen = Large T antigen (Simian virus 40, UniProt P03070); format: functional, Betapolyomavirus macacae;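 note: Confirmatory-stage PubChem screen for compounds that inhibit SV40 T antigen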
# [12] = biological target: T5, Mannose-6-phosphate isomerase (Homo sapiens, UniProt P34949); test: MPI enzyme activity inhibition – biochemical, fluorescence intensity, coupled assay, primary screen (AID 1209)
# T5 sequence (P34949 whole entry): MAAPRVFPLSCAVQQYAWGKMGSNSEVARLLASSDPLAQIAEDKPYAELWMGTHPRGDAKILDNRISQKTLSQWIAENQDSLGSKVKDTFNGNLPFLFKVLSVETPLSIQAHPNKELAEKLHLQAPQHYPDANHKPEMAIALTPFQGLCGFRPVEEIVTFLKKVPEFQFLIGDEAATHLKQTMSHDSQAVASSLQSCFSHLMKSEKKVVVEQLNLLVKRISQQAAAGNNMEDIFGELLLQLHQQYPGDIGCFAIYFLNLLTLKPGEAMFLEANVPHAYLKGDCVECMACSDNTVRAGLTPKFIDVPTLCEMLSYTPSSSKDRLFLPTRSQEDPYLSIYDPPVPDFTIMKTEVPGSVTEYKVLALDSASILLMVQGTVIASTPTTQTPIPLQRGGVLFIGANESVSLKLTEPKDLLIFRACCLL
# [13] = biological target: T5, Mannose-6-phosphate isomerase; test: MPI inhibition at elevated mannose 6-phosphate – biochemical, fluorescence intensity, high mannose 6-phosphate, primary screen (AID 1220)
# [14] = biological target: T6, Replicative DNA helicase DnaB (Mycobacterium tuberculosis, UniProt P9WMR3); test: DnaB intein splicing inhibitors, dose response, biochemical, cell-free fluorescence (AID 449749); format: functional
# T6 sequence (P9WMR3 whole entry): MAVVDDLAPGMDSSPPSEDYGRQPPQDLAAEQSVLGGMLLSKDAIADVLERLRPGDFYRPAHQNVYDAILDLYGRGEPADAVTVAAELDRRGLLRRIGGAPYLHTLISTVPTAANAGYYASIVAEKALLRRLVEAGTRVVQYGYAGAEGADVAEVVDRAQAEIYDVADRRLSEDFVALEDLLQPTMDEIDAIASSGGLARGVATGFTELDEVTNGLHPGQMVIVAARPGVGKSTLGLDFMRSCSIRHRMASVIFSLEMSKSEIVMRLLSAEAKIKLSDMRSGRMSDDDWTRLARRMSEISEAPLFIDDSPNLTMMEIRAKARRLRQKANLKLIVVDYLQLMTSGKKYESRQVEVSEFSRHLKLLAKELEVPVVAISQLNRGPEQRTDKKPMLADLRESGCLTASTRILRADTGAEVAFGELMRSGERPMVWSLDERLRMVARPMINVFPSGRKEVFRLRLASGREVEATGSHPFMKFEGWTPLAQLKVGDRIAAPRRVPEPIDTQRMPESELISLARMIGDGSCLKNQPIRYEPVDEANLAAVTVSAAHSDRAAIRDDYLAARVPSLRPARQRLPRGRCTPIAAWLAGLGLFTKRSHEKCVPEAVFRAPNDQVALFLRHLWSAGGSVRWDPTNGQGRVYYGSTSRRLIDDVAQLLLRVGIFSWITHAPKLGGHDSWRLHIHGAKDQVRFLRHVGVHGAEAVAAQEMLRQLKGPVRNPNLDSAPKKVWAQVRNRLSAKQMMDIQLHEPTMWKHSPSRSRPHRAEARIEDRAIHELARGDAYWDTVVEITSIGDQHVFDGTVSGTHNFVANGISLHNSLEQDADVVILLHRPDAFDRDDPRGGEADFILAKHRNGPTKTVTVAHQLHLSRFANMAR
# Vero = test: viability of Vero cells under compound – cytotoxicity control for flavivirus capping enzyme inhibitors (AID 588742); format: functional; details: Chlorocebus sabaeus
# Protein RecA = biological target: T7, Protein RecA (Mycobacterium tuberculosis, UniProt P9WHJ3); test: Fluorescence Cell-Free Homogeneous Dose Retest to Identify Inhibitors of RecA-Intein Splicing Activity. [Related pubchem assays (depositor defined):AID2097, AID2223, AID489010, AID492950]; format: functional
# T7 sequence (P9WHJ3 whole entry): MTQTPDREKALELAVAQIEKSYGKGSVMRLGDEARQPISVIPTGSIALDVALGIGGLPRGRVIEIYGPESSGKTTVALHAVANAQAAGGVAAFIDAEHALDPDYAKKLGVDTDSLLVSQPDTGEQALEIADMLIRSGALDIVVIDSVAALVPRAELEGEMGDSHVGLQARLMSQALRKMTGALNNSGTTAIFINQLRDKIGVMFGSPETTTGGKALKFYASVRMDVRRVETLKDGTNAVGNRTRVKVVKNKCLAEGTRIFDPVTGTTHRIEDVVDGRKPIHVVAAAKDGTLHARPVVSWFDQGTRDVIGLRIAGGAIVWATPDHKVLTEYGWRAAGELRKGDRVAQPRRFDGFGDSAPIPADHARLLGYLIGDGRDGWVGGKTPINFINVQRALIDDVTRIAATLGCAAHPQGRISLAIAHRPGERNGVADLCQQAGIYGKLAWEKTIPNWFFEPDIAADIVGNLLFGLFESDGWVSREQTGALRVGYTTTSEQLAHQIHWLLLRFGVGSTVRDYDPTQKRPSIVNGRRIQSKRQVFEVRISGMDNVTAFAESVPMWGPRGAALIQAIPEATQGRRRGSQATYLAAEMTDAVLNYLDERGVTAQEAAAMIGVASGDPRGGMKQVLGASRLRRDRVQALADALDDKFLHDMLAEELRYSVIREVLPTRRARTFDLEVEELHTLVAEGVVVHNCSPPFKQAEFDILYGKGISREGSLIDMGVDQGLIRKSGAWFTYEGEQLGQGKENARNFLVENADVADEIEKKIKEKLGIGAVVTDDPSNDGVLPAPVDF
# [15] = biological target: T8, Polyadenylate-binding protein 1 (Homo sapiens, UniProt P11940); test: MLLE binding blockers, Cy5 peptide tracer – biochemical, fluorescence polarization, Cy5-PAM2 peptide, secondary, miRNA deadenylation inhibitor project, dose response (AID 602260); format: functional; details: read-out: IC50_Mean
# [16] = biological target: T8, Polyadenylate-binding protein 1; test: MLLE domain peptide-binding blockers, IC50 – biochemical, fluorescence polarization, FITC-PAM2 peptide, dose response (AID 602259); format: functional; details: read-out: IC50_Mean
# T8 sequence (P11940 whole entry, the tested form may be a part): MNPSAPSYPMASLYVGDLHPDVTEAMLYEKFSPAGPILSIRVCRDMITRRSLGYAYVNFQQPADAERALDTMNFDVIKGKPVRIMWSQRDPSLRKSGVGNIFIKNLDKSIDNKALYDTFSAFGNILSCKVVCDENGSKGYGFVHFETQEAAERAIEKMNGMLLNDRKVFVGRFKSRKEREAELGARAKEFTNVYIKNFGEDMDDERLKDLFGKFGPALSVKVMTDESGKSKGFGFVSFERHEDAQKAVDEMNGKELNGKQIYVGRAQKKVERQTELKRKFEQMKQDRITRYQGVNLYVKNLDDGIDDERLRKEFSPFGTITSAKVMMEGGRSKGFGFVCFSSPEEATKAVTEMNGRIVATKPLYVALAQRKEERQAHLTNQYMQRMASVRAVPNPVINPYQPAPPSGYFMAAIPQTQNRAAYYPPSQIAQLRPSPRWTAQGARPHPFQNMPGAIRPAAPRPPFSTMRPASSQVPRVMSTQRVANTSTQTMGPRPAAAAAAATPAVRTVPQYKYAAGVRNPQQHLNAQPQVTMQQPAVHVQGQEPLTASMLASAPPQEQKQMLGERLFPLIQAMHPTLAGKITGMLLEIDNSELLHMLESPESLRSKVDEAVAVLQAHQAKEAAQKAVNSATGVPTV
# Large T antigen, sequence (P03070 whole entry): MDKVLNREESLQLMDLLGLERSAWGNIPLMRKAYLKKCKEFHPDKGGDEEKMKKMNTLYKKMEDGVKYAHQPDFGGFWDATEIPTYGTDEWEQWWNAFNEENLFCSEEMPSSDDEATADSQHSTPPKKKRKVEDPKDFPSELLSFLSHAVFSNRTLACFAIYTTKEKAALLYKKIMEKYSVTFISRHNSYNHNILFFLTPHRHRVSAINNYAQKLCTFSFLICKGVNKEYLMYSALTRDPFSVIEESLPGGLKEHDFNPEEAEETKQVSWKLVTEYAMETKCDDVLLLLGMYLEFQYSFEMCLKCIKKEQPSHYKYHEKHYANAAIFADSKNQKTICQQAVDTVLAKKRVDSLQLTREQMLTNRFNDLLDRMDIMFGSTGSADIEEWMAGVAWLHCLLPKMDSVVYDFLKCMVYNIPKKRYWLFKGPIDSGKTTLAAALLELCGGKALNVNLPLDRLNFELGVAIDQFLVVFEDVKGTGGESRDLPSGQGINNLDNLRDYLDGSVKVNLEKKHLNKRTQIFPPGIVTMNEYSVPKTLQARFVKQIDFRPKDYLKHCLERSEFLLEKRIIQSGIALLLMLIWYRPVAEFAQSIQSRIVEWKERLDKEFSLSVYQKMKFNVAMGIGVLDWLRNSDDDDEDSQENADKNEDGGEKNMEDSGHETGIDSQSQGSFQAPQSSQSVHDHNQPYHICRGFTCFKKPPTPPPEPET
# G-protein coupled receptor 55, sequence (Q9Y2T6 whole entry): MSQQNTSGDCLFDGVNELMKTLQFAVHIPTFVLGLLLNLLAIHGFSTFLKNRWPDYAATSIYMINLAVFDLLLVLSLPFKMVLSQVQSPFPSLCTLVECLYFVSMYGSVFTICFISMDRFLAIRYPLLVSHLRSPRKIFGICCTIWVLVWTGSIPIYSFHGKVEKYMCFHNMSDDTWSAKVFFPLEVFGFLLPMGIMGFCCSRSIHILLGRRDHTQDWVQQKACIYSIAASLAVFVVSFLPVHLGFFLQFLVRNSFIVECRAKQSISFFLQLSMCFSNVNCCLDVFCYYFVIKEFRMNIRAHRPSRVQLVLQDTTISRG
# Glyceraldehyde-3-phosphate dehydrogenase, sequence (P04406 whole entry): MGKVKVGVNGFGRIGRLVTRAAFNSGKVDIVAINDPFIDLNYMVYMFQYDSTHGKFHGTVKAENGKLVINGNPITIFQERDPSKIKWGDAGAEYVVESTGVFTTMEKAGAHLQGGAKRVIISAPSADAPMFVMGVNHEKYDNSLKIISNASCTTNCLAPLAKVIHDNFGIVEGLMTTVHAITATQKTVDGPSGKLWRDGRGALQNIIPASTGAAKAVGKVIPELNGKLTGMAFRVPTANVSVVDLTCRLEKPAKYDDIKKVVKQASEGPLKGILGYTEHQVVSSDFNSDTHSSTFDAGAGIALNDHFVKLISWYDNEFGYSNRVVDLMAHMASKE
# Ion channel NompC, sequence (Q7T1G6 whole entry): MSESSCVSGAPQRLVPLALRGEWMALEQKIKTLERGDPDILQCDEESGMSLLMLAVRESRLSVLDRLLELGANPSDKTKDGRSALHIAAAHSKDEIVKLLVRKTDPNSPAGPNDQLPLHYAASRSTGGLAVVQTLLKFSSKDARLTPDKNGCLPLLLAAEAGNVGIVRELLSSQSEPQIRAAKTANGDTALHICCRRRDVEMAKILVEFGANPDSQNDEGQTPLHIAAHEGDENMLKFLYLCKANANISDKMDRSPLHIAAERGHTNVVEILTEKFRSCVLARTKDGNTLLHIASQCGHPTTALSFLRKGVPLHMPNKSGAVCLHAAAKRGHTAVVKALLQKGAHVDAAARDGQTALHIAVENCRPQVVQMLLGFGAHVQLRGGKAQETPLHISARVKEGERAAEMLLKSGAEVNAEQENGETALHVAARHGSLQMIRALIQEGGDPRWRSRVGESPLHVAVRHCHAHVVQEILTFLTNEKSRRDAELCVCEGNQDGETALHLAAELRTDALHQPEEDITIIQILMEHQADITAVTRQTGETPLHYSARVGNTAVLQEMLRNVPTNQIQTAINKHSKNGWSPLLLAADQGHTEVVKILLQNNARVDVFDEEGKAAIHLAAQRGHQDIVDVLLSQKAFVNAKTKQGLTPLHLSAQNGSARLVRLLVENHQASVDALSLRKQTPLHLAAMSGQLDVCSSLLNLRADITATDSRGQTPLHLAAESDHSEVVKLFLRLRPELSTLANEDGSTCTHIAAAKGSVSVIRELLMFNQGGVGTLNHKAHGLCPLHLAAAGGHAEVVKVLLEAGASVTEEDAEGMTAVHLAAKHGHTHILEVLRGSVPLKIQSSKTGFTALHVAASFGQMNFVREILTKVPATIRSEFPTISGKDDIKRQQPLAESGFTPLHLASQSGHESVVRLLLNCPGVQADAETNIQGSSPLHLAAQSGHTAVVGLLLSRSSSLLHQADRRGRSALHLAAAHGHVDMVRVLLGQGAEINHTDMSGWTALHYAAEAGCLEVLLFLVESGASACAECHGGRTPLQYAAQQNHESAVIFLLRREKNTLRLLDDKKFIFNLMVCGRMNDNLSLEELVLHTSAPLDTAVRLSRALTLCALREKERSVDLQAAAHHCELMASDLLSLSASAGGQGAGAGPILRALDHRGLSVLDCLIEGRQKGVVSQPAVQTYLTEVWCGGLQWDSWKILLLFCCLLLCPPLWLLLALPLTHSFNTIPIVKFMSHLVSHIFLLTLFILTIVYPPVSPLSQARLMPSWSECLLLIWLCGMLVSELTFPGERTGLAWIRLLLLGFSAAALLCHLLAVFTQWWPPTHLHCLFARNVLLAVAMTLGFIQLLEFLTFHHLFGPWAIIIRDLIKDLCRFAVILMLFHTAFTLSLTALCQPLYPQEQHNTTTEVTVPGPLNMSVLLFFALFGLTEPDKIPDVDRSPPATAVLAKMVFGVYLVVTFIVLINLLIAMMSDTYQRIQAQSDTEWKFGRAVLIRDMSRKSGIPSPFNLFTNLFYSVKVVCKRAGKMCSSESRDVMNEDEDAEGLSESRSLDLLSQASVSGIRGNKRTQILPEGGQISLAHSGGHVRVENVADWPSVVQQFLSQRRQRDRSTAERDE
# Cytochrome P450 2C9, sequence (P11712 whole entry): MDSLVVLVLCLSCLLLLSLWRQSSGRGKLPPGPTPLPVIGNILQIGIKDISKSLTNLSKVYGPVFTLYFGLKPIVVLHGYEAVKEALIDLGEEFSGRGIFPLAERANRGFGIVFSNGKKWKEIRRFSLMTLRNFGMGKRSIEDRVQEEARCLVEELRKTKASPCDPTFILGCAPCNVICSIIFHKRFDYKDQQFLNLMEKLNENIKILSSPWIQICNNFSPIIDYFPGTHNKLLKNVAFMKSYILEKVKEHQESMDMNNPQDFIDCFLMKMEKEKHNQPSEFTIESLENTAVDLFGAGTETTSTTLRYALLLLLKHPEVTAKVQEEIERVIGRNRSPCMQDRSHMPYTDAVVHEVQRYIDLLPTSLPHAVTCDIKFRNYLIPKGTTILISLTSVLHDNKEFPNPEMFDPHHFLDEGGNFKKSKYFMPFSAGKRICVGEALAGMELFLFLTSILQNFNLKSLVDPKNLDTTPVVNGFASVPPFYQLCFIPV
compound,measurement,setting,value
COc1ccccc1C1CN=NC12CCCc1ccccc1C2=O (configuration not stated),EC50,Mucolipin-3,1.83 µM (active)
same,EC50,Ion channel NompC,> 29.9 µM (not active)
CC1NC(C)C(C)N(C2=C(Cl)C(=O)N(c3ccc(Cl)c(Cl)c3)C2=O)C1C (configuration not stated),IC50,[1],> 100 µM (not active)
same,IC50,Bcl-2-related protein A1 [2],47 µM (active)
same,IC50,Bcl-2-related protein A1 [3],> 100 µM (not active)
Clc1nc2ccccc2cc1-c1nnn(-c2ccccc2)n1,IC50,Bcl-2-related protein A1 [2],> 100 µM (not active)
same,IC50,Bcl-2-related protein A1 [3],> 100 µM (not active)
O=C1N=C(N2CCOCC2)S/C1=C/c1ccc(-c2ccc(F)cc2)o1,IC50,[4],2.93 µM (active)
same,IC50,[5],> 100 µM (active)
Cc1nc2c3cnn(-c4ccc(C)c(C)c4)c3ncn2n1,EC50,[6],0.298 µM (active)
same,EC50,[7],< 0.1 µM (active)
same,EC50,[8],0.341 µM (active)
same,EC50,[9],0.424 µM (active)
same,AC50,Cytochrome P450 2C9,20 µM (inconclusive)
c1ccc(COc2ccc(OCCCCN3CCCCC3)cc2)cc1,IC50,[10],9.46 µM (active)
same,IC50,[11],> 35 µM (not active)
Cc1nc2ccc(F)cc2cc1C(=O)Nc1ccc(Cl)c(Cl)c1,IC50,[10],8.84 µM (active)
same,IC50,[11],8.88 µM (active)
Cc1nnc2n(c1=O)N=C(c1ccc(Cl)cc1)CS2,EC50,[6],0.355 µM (active)
same,EC50,[7],< 0.1 µM (inconclusive)
same,EC50,[8],0.249 µM (active)
same,EC50,[9],0.244 µM (active)
COc1ccc2c(c1)-c1nc(/N=C/c3ccc(O)c(OC)c3)sc1CC2,IC50,Large T antigen,15.5 µM (active)
same,IC50,[12],> 50 µM (not active)
same,IC50,[13],> 50 µM (not active)
CCOC(=O)c1c(C)oc2c1c(/C=N/CCO)c(O)c1ccccc12,IC50,[12],5.36 µM (active)
same,IC50,[13],4.48 µM (active)
same,AC50,[14],> 380 µM (inactive)
same,CC50,Vero,32.9 µM (active)
same,EC50,Protein RecA,0.618 µM (active)
same,IC50,[15],> 66 µM (inactive)
same,IC50,[16],> 66 µM (inactive)
